# From patent US5545648A (Canadian Spinal Research Organization, priority 1992, dated 1996)
# “And” between values parts separate entries of the source, which are not always exact repeats. Equal entries are not always repeated. “Also recorded” adds a separate entry of the source.
# Key:
# [1] = test system: spinal cord injured patients; experiment: Neurological examination, motor and sensory score (modified ASIA standards), double-blind placebo-controlled crossover study; format: in vivo, human; set-up: key to change in sensory score, -ve / change in sensory score, +ve / change in sensory score, -ve, TOTAL: change in summed sensory points (each item graded 0-4)
# Description: (§1) The experimental design was a double-blind, placebo-controlled, crossover study in which each patient was administered the drug and a vehicle control on different occasions, separated by two weeks. The order of delivery was randomized.
# (§2) The schedule of each trial was the same. The patient was admitted to the hospital on the preceding day and in the early morning was assessed by neurological examination and electro-diagnostic evaluation. Administration of the drug or placebo, through an in dwelling venous catheter, was then begun and continued for approximately 2 hours, arranged in 20 minute sequences based on delivery of 1 ml aliquots of the 4-AP solution. The patient was monitored electroencephalographically at frequent intervals throughout the procedure. Samples of blood and urine were obtained from an additional intravenous catheter and from the urinary catheter respectively. Blood was obtained at intervals up to 5 hours from the beginning of drug delivery and urine obtained pre-infusion and at 1 and 2 hours after the beginning of infusion. The patients were re-evaluated by complete neurological examination, by the same examiner, at the end of the period of drug delivery. They were then re-examined with the electrodiagnostic tests. A more limited neurological examination was sometimes performed during drug delivery in an attempt to identify any early changes, without producing significant testing fatigue. The electrodiagnostic tests were repeated at 2 hours after the cessation of drug delivery. Patients showing apparent effects of the treatment remained in the hospital overnight and were examined on the following day. Subsequent contact with the patients was by telephone interview or as a result of their correspondence regarding longer term changes associated with their treatment.
# (§3) Two of the patients who reported more prolonged effects of the drug were returned to the hospital after 4 months for a second, unblinded trial, which included neurological examinations daily for 3-4 days. Plasma samples were also obtained daily from these two patients, for measurement of 4-AP.
# Patients were evaluated using a modified form of the American Spinal Injury Association (ASIA) Standards for Neurological Classification of Spinal Injury Patients (revised 1990). The modifications were mainly required to simplify the examination so that it could be performed on patients lying on a bed with intravenous catheters, electrodes and urethral catheters restricting the range of motion. Examinations performed after the day of drug delivery were made on an outpatient basis with the subjects partially clothed, and evaluation of dermatomes was sometimes incomplete. Each part of the examination was videotaped for later review and was repeated on the two sides of the body.
# Grading of motor abilities was made on the ASIA 0-5 point scale wherever possible:
# 0--absent (total paralysis)
# 1--trace (palpable or visible contraction producing little or no movement around joint)
# 2--poor (active movement through much or all of the normal range of motion, with gravity eliminated--where relevant)
# 3--fair (active movement through full range of motion against gravity)
# 4--good (active movement against resistance)
# The muscles examined included: deltoid, biceps, triceps, wrist extensors, wrist flexors, finger flexors and extensors (combined), hip flexors (iliopsoas), hip extensors, quadriceps, hamstrings, ankle dorsiflexors (tibiails anterior) and plantarflexors (gastrocnemius, soleus), and toe extensors (extensor hallucis longus). The total possible score for the full motor examination was 130.
# Sensory abilities were graded on an analogous 0-4 point scale:
# 0--absent (no ability to detect the stimulus)
# 1--trace (patchy or variable ability to detect stimulus with little or no resolution of quality)
# 2--light (able to detect stimulus but much weaker, or of altered quality relative to equivalent unaffected areas) […]
# [2] = test system: spinal cord injured patients; experiment: Deep tendon (segmental) reflex score; format: in vivo, human
# Description: as §2
# Segmental reflexes (biceps, triceps, knee- and ankle-jerk) were evaluated in the conventional manner with a reflex hammer and scored on a 0-4 point scale:
# 0--no detectable response
# 2--brisk response of normal amplitude
# 3--abnormally large amplitude response
# 4--large amplitude response with some clonus.
# The total possible score in a patient with hyperreflexia and clonus in all tested muscles was 32.
# [3] = test system: spinal cord injured patients; experiment: Electrodiagnostic testing (nerve conduction, electromyography, somatosensory evoked potentials); format: in vivo, human
# Description: as §2
# (§4) Immediately before and after the infusion of 4-AP or placebo, and at approximately 2 hours after the end of the infusion, patients were evaluated with a set of standard electro-diagnostic tests: conduction in peroneal, posterior tibial and sural nerves, electromyography of tibial is anterior and gastroc-nemius muscles during rest and maximal voluntary contraction, and somatosensory evoked potentials. Patients were also monitored with electroencephalography, at intervals during the infusion, to look for evidence of potential for seizure activity.
# [4] = test system: spinal cord injured patients; experiment: Negative side-effects, EEG and vital sign monitoring; format: in vivo, human
# Description: as §2, §4
# [5] = test system: spinal cord injured patients; experiment: Effects reported by the subjects and overall clinical benefit (function, chronic pain, spasticity); format: in vivo, human
# Description: as §1, §2, §3
# [6] = test system: animals with experimental or naturally occurring spinal cord injuries; conditions: intravenous injection; cited from earlier work
# [7] = test system: synaptic transmission in the spinal cord; conditions: relatively high concentrations; cited from earlier work
# [8] = test system: multiple sclerosis patients; conditions: cited from earlier work
# [9] = 2 hours after infusion of 4-AP, total of 8 subjects
# [10] = 2 hours after infusion of 4-AP, total of 8 subjects, without vibration
# [11] = 2 hours after infusion of 4-AP, total possible 130, one line per subject: b160 RB, b161 SC, HT, LJ, EB, GCh, AW, GCu
# [12] = 2 hours after infusion of 4-AP, total possible 224, without vibration, one line per subject: b160 RB, b161 SC, HT, LJ, EB, GCh, AW, GCu
# [13] = 2 hours after infusion of 4-AP, total of subjects
# [14] = subject named in the block (LJ; EB; GCh; AW)
compound,measurement,setting,value
"Nc1ccncc1 [4-AP, 4-aminopyridine]","change in motor score, +ve, TOTAL",[1]; [9],+26
same,"change in motor score, -ve, TOTAL",[1]; [9],0
same,"change in sensory score, +ve, TOTAL",[1]; [10],+66
same,"change in sensory score, -ve, TOTAL",[1]; [10],-7
same,"change in motor score, +ve",[1]; [11],0 and +4 and +16 and +2
same,"change in motor score, -ve",[1]; [11],0
same,"change in sensory score, +ve",[1]; [12],0 and +3 and +2 and +14 and +27 and +20
same,"change in sensory score, -ve",[1]; [12],0 and -5 and -2
same,initial pinprick response in most distal dermatomes,"[1]; 2 hours after infusion, second trial",initial depression of response in the most distal dermatomes
same,pinprick sensation and joint position sense below the lesion,"[1]; 24 hours, not seen at 2 hours, subject three",striking improvement of pinprick sensation and joint position sense below the lesion
same,persistence of motor score increase,"[1]; 24 hours, second trial, subject four",increases in score were sustained at 24 hours after infusion
same,persistence of pinprick improvement,"[1]; 48 hours post infusion, second trial, EB and GCh",still detectable at 48 hour post infusion in both cases
same,reversal of sensory effect,"[1]; 72 hours, subject GCh, second trial",returned completely to pre-infusion status; also recorded: entirely reversed by 72 hours
same,time of maximal motor improvement,"[1]; after infusion, second trial, subject four (FIG. 5)",2 h
same,time of maximal improvement in sensory (pinprick) score,"[1]; after infusion, second trial, subjects",24 h
same,"motor performance, greater endurance / reversal of leg muscle rigidity effects","[1]; second administration, leg muscles, hip and knee",reduction in the spasticity of leg muscles led at times to a reduction of motor power
same,pinprick sensation below level of injury,"[1]; second, unblinded administration, EB and GCh",remarkable increase in the response to pinprick stimulation below the level of injury
same,deep tendon reflex scores at 24 and 48 hours,"[2]; 24 and 48 hours, EB, GCh",slight reductions in deep tendon reflex scores at 24 and 48 hours after infusion
same,"change in score for deep tendon reflexes, arms, TOTAL",[2]; [13],+13
same,"change in score for deep tendon reflexes, legs, TOTAL",[2]; [13],+2
same,"change in score for deep tendon reflexes, legs","[2]; 2 hours after infusion of 4-AP, total possible 32, subject one, SC, HT, GCh, AW, GCu",+2 and +1 and -2 and 0 and +3
same,"change in score for deep tendon reflexes, arms","[2]; 2 hours after infusion of 4-AP, total possible 32, subject one, SC, HT, GCh, GCu",+4 and +1 and 0
same,reflex responses at 24 hours,"[2]; 24 hours, AW, LJ",reduced reflex responses
same,deep tendon reflex amplitude immediately after infusion,[2]; predominantly in the arms,marked tendency for increase in amplitude of deep tendon reflexes
same,electromyographic data,[3]; after 4-AP,consistent with observed changes in strength of muscle contraction
same,peripheral nerve conduction,[3]; after 4-AP,No consistent effects on peripheral nerve conduction
same,"somatosensory evoked potentials (posterior tibial nerve stimulation), no detectable response","[3]; six subjects, before or after injection",no detectable somatosensory evoked potentials
same,form or amplitude of somatosensory evoked potentials,"[3]; subjects, following 4-AP",did not change significantly in form or amplitude
same,most frequent side effect: arm discomfort,[4]; arm in which the drug was infused,discomfort in the arm in which the drug was infused
same,adverse indications on EEG and vital signs,[4]; during infusion,No adverse indications were detected
same,duration of warm sensation under the skin from neck to back,[4]; subject four,two days
same,side effects in individual subject,[4]; [14],"pain in the left arm, and some nausea and light-headedness; also recorded: ""warm sensation under the skin from neck to back"" for two days and an episode of constipation; also recorded: no negative side effects; also recorded: After 21 mg of the infusion, their arm became quite painful and they became anxious, then angry, and began to show alternative bouts of sweating and shivering"
same,infusion suspended / not completed,"[4]; subject two, 25 mg rather than planned 30 mg","Infusion was suspended in this case because of a combination of discomfort in the arm at the site of infusion, and a significant degree of agitation and anxiety"
same,reproduction of effects at second administration,"[5]; 4 months later, two subjects GCh, EB","effects and side effects similar to those seen in the earlier, blinded administration; also recorded: the effects were reproduced by a second administration of the drug 4 months later in two of the subjects"
same,return to usual state,"[5]; after infusion, subject gamma",≤ 3 days
same,"increase in strength of arms and right leg, reported by subject","[5]; day after infusion, subject beta",about 25%
same,delayed or prolonged effects reported,[5]; five patients with less complete injuries,all reported some delayed or prolonged effects
same,duration of self-sustaining changes in the nervous system,"[5]; human, in vivo",1 to 2 days
same,patients desiring to receive the drug regularly,"[5]; human, in vivo",four of the patients expressed a strong desire to be able to receive the drug on a regular basis
same,reduced usage of analgesic,"[5]; human, in vivo",greatly reduced usage of analgesic in one case
same,reduced usage of antispastic medication,"[5]; human, in vivo",antispastic medication in at least two cases
same,relation between side-effects and apparent benefit,"[5]; human, in vivo",no relation between the appearance of side-effects and apparent benefit
same,motor and/or sensory effects in incomplete injuries,[5]; remaining 5 subjects,showed motor and/or sensory effects
same,duration of markedly reduced spasticity,"[5]; second infusion, subject gamma",more than 24 hours
same,duration of improved function,[5]; some subjects,over 48 hours
same,"reduction of chronic pain and spasticity, motor control and sensory ability (overall)",[5]; spinal cord injured individuals,relief of chronic pain and spasticity; also recorded: can increase motor control and sensory ability and reduce chronic pain and spasticity; also recorded: long lasting reductions in spasticity and in chronic pain and dysesthesias; also recorded: shown to reduce chronic pain and spasticity in certain individuals
same,proportion of patients with incomplete injury showing benefit,[5]; spinal cord injury patients,5 of 6 and 5 of the 6
same,duration of reduction in spasticity,[5]; subject four,three days
same,dysesthesia (persistent itch in one shoulder),[5]; subject four,no change in this condition
same,return to normal requirement for Baclofen,[5]; subject four,only returned to their normal requirement for Baclofen on the fourth day
same,"finger movements back and forth, left hand","[5]; subject four, normally a few flickers",20-30 times
same,duration of absence of pain in the legs,[5]; subject gamma,at least 2 days
same,"sensation, reported by subject",[5]; [14],more sensation below the level of injury; also recorded: remarkable return of sensation below the level of the injury to virtually normal sensation on both sides; also recorded: marked improvement in sensation below the lesion; also recorded: increased sensation; also recorded: more sensation and strength in their legs
same,"chronic pain / paresthesia, reported by subject",[5]; subject named in the block (LJ; GCh; GCu),"The usual burning pain they experienced in their buttocks was absent, though there was still some burning in their lower limbs, which had increased; also recorded: the pain in the legs was absent, though it remained to some extent in their feet; also recorded: reduction of chronic pain; also recorded: significant reduction in the usual tingling paresthesia in their hands"
same,"movement / motor power, reported by subject","[5]; subject named in the block (b79 LJ; b81 EB; b83, b84 GCh; b86 AW; b88 GCu)",slightly greater movement in one thumb and index finger; also recorded: increased motor power in the left arm and leg; also recorded: greater endurance; also recorded: motor endurance below the level of the injury; also recorded: improved strength and sensation in their legs; also recorded: their arms and right leg had been stronger
same,spasticity,"[5]; subject named in the block (b81 EB; b83, b84 GCh)",marked reduction in spasticity; also recorded: decrease in spasticity
same,breathing,[5]; subject two,marked improvement in breathing
same,duration of motor and sensory effects incl. improved breathing,[5]; subject two,about 2 days
same,infused dose at which lower limb strength increased,[5]; subject two,8 mg
same,"relief of chronic, painful dysesthesias below the lesion","[5]; subjects, predominantly proximal in the limb",considerable relief
same,beneficial effects in neurologically complete lesions,[5]; two patients,"Two patients with neurologically ""complete"" spinal cord lesions showed no beneficial effects"
same,electrophysiological and behavioral function,[6],"significant improvements in electrophysiological (Blight and Gruner, 1987) and behavioral function"
same,synaptic transmission in the spinal cord,[7],enhance synaptic transmission in the spinal cord
same,motor strength and sensory deficits,[8],selective increases in motor strength and recovery of sensory deficits
